In PubChem BioAssay (NCI):
“And” between values parts separate entries of the source, which are not always exact repeats. Equal values may be shown once.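 Growth conditions: 96-well plates. Treatment: test compound, 48 hours, 5 concentrations. Analysis: linear interpolation between bracketing concentrations; unreached endpoints set to highest concentration. Abbreviation: GI50, concentration required for 50% inhibition of growth. At the TGI there is no net growth.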

Assays:
Test in all cases: growth of human tumour cells (NCI), 48 h
786-0 renal = tested on: 786-0 renal
CAKI-1 renal = tested on: CAKI-1 renal
OVCAR-3 ovarian = tested on: OVCAR-3 ovarian
EKVX NSCLC = tested on: EKVX NSCLC
U251 CNS = tested on: U251 CNS
TK-10 renal = tested on: TK-10 renal
RXF 393 renal = tested on: RXF 393 renal
MCF7 breast = tested on: MCF7 breast
SN12C renal = tested on: SN12C renal
UACC-62 melanoma = tested on: UACC-62 melanoma

Row | Structure (SMILES) | GI50 (786-0 renal) | TGI (786-0 renal) | GI50 (CAKI-1 renal) | TGI (CAKI-1 renal) | GI50 (OVCAR-3 ovarian) | TGI (OVCAR-3 ovarian) | GI50 (EKVX NSCLC) | TGI (EKVX NSCLC) | GI50 (U251 CNS) | TGI (U251 CNS) | GI50 (TK-10 renal) | TGI (TK-10 renal) | GI50 (RXF 393 renal) | TGI (RXF 393 renal) | GI50 (MCF7 breast) | TGI (MCF7 breast) | GI50 (SN12C renal) | TGI (SN12C renal) | GI50 (UACC-62 melanoma) | TGI (UACC-62 melanoma)
1 | CCN(CC)CCOC(COc1cc(C)cc(C)c1)COc1cc(C)cc(C)c1 | 3.2 µM | 14.5 µM | 3.7 µM | 16 µM | 3.46 µM | 13 µM | 2.91 µM | 11.8 µM | 3.12 µM | 11.5 µM | 3.45 µM | 14.5 µM | 2.06 µM | 5.07 µM | 2.17 µM | 5.33 µM | 2.62 µM | 15.6 µM | 1.74 µM | 4.61 µM
2 | Cn1cc(-c2cc(-c3cn(C)c4ccccc34)[nH]n2)c2ccccc21 | 14.1 µM | 41.2 µM | > 100 µM | > 100 µM | 28.4 µM | > 100 µM | 27.2 µM | > 100 µM | 12.9 µM | 46.9 µM | 37.4 µM | > 100 µM | 14.7 µM | 38.7 µM | 3.95 µM | > 100 µM | 1.95 µM | 23.1 µM | 16.4 µM | > 100 µM
3 | CC1[C@@]2(CCC(C)(C)O2)O[C@@H]2C=C3C4CCC5Cc6nc7c(nc6C[C@@]5(C)C4C[C@H](O)[C@@]3(C)[C@]12O)CC1CCC2C3=C[C@H]4O[C@@]5(O[C@@](C)(CO)C[C@@H]5O)C(C)[C@@]4(O)[C@]3(C)[C@@H](O)CC2[C@]1(C)C7 (stereo not given in full) | – | 0.6 µM | 0.0195 µM | 0.66 µM | 0.435 µM | 1.11 µM | 0.00521 µM | 0.875 µM and 0.462 µM | 0.00043 µM | – | – | 0.981 µM | < 0.000365 µM | – | – | 0.524 µM | 0.421 µM | 1.19 µM | 0.00387 µM | –
4 | CC(=O)ON(OCc1ccc2ccccc2c1)C(C)=O | > 100 µM | > 100 µM | > 100 µM | > 100 µM | > 100 µM | > 100 µM | 32.3 µM | > 100 µM | > 100 µM | > 100 µM | > 100 µM | > 100 µM | > 100 µM | > 100 µM | 96.1 µM | > 100 µM | > 100 µM | > 100 µM | > 100 µM | > 100 µM
5 | S=c1ssnc1-c1cc2ccccc2o1 | 16.5 µM | 34.8 µM | 10 µM | 26.1 µM | 15.6 µM | 49.2 µM | 11.8 µM | 30.8 µM | 15.1 µM | 28.4 µM | 22.1 µM | 45.9 µM | 7.78 µM | 23.3 µM | 9.55 µM | 32.1 µM | 13.8 µM | 32.1 µM | 15.5 µM | 29.4 µM
6 | O=[N+]([O-])c1cccc(/C=N/Nc2ccc3ccccc3n2)c1O | – | 12.7 µM | – | 16.5 µM | – | 0.632 µM | – | 39.1 µM | – | 16.4 µM | – | > 44.9 µM | – | 17.4 µM | – | 11.4 µM | – | 16.1 µM | – | 20.2 µM
7 | CC(C)(Oc1ccc(-c2cccc3ccccc23)cc1)C(=O)O | – | > 100 µM | – | > 100 µM | – | > 100 µM | – | > 100 µM | – | > 100 µM | – | > 100 µM | – | > 100 µM | – | > 100 µM | – | > 100 µM | – | > 100 µM
8 | COc1ccc2nc3ccccc3c(NCCNCCO)c2c1 | 0.649 µM | 7.55 µM | 1.22 µM | 6.5 µM | 0.624 µM | 2.77 µM | 1.43 µM | 7.32 µM | 0.479 µM | 4.35 µM | 0.716 µM | 9.96 µM | 0.763 µM | 2.34 µM | 0.363 µM | 7.33 µM | 0.533 µM | 7.7 µM | 1.09 µM | 2.99 µM
9 | CCCN1C(=O)/C(=C/c2ccc(SC(F)(F)F)cc2)SC1=Nc1ccc(OC)cc1 | 9.56 µM | 25.6 µM | 2.63 µM | 12.5 µM | 13.5 µM | 31.1 µM | 16.7 µM | 48.3 µM | 6.51 µM | 16.9 µM | 7.1 µM | 19.2 µM | 5.35 µM | 16.9 µM | 15.6 µM | > 50 µM | 13.6 µM | > 50 µM | 10 µM | 25.4 µM
10 | [O]=[Sn]([CH]1CCCCC1)[CH]1CCCCC1 | 0.214 µM | 0.456 µM | 0.145 µM | 0.341 µM | 0.203 µM | 0.549 µM | 0.225 µM | 1.2 µM | 0.0514 µM | 0.2 µM | 0.267 µM | 1.14 µM | 0.0962 µM | 0.241 µM | 0.0849 µM | – | 0.315 µM | 1.23 µM | 0.208 µM | 0.743 µM
11 | O=c1ccc(N=Nc2ccccc2)ccc1O | – | 58 µM | – | 29.4 µM | – | 22 µM | – | 81.1 µM | – | 20.2 µM | – | 60.2 µM | – | > 100 µM | – | > 100 µM | – | 34.6 µM | – | 25.4 µM
12 | O=C1CCC(c2ccccc2)=NN1c1nc2ccccc2s1 | – | > 100 µM | – | > 100 µM | – | 42.4 µM | – | > 100 µM | – | > 100 µM | – | > 88 µM | – | 34.1 µM | – | > 100 µM | – | > 94.1 µM | – | > 100 µM
13 | Fc1ccccc1CN1COc2c(cc(Cl)c3cccnc23)C1 | – | 21.5 µM | – | 9.93 µM | – | 19.2 µM | – | 2.72 µM | – | 12.8 µM | – | 18 µM | – | 63.6 µM | – | 13.7 µM | – | 1.57 µM | – | 1.74 µM
14 | [Br][Pb]([c]1ccccc1)([c]1ccccc1)[c]1ccccc1 | 0.153 µM | 0.309 µM | 0.2 µM | 0.454 µM | 0.139 µM | 0.272 µM | 0.183 µM | 0.439 µM | 0.169 µM | 0.309 µM | 0.175 µM | 0.36 µM | 0.0916 µM | 0.231 µM | 0.159 µM | 0.303 µM | 0.228 µM | 0.677 µM | 0.186 µM | 0.428 µM
15 | CC[C@H](C)[C@H](NC(=O)C12C3C4C1C1C2C3C41NC)C(=O)N(C)[C@H](C[C@@H](OC(C)=O)c1nc(C(=O)N[C@@H](Cc2ccccc2)C[C@H](C)C(=O)OC)cs1)C(C)C (stereo not given in full) | 0.76 µM | > 14.3 µM | 5.57 µM | > 14.3 µM | 0.0872 µM | 1.02 µM | 1.67 µM | > 14.3 µM | 0.594 µM | > 14.3 µM | > 4 µM | > 14.3 µM | 0.413 µM | > 14.3 µM | 0.0552 µM | > 14.3 µM | 0.896 µM | > 14.3 µM | 0.118 µM | > 14.3 µM
16 | COC(=O)[C@@]12OC[C@]34[C@H]([C@@H](O)[C@@H]1O)[C@@]1(C)CC(=O)C(O)=C(C)[C@@H]1C[C@H]3OC(=O)[C@H](OC(=O)/C=C(\C)C(C)C)[C@@H]24 | 0.0217 µM | 0.072 µM and < 0.012 µM and 0.0429 µM | – | 0.055 µM and 0.0295 µM and 0.159 µM | – | 0.0151 µM and 0.0911 µM | – | 0.0517 µM and 0.0283 µM and 0.0316 µM | – | 0.0206 µM and 0.0657 µM | 0.0235 µM | 0.0719 µM and 0.0333 µM | – | 0.0303 µM and 0.0297 µM | – | 0.021 µM and 0.0264 µM | – | 0.0582 µM and 0.0317 µM and 0.102 µM | – | 0.0131 µM and 0.023 µM
17 | NNc1c(C(N)=O)c2c(N)ncnc2n1C1OC(CO)C(O)C1O (stereo not given) | 0.0354 µM and 0.107 µM | 0.405 µM and 1.87 µM | 0.0171 µM and < 0.0167 µM | 0.826 µM and 0.909 µM | 0.0176 µM and 0.0219 µM | 0.4 µM and 0.335 µM | 0.208 µM | 0.841 µM and 4.36 µM | 0.023 µM and 0.0635 µM | 12.9 µM and > 100 µM | 0.0243 µM and 0.0434 µM | 1.14 µM and 1.49 µM | 0.0254 µM and < 0.0143 µM | 0.186 µM and 0.125 µM | 0.0729 µM | 0.179 µM and 1.29 µM | 0.019 µM and 0.0443 µM | 0.174 µM and 0.58 µM | 0.0269 µM and 0.0409 µM | 0.124 µM and 0.168 µM
18 | Nc1nc(SCc2ccccc2CCl)c2[nH]cnc2n1 | 17.6 µM | 40.3 µM | 15.6 µM | 44 µM | 14.6 µM | 28.9 µM | 12.9 µM | 25.9 µM | 13.1 µM | 27.3 µM | – | – | 14 µM | 28.7 µM | 12.2 µM | 28.4 µM | 21.2 µM | 71.7 µM | 14.3 µM | 30.1 µM
19 | COc1cc(C2CC(c3ccccc3)=NN2C=O)ccc1Oc1ccnc2cc(Cl)ccc12 (stereo not given) | 11.5 µM | 73.7 µM | 5.2 µM | > 100 µM | 18.6 µM | > 100 µM | 3.67 µM | > 100 µM | 19.8 µM | > 100 µM | – | – | 15.4 µM | 47.6 µM | 5.7 µM | > 100 µM | > 100 µM | > 100 µM | 6.76 µM | > 100 µM
20 | CN(C)CCCN1c2ccccc2Sc2ccc(C(F)(F)F)cc21 | 1.63 µM | 3.09 µM and 27.1 µM and 27.9 µM | 1.54 µM | 3.15 µM and 24 µM | – | – | 1.84 µM | 4.75 µM and 35.7 µM and 29.3 µM | 1.69 µM | 3.14 µM and 29.6 µM and 29.4 µM | 1.77 µM | 3.24 µM and 28.8 µM and 31.6 µM | 1.32 µM | – | 1.6 µM | – | 1.66 µM | 3.62 µM and 32.2 µM and 29.5 µM | 1.46 µM | –
21 | CC(C)(C)N/N=C(/Cc1nc2c3c(ccc2[nH]c1=O)C(=O)c1ccccc1C3=O)C(=O)NC1=C(Cl)C(=O)c2ccccc2C1=O | – | > 100 µM | – | > 100 µM | – | > 100 µM | – | > 100 µM | – | > 100 µM | – | – | – | > 100 µM | – | > 100 µM | – | > 100 µM | – | > 100 µM
